Reference: PubChem BioAssay (NCI)
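Each compound was tested at five concentrations against cells in 96-well plates for 48 hours. GI50 marks 50% less growth. TGI: total growth inhibition.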

Legend:
Assay in all cases: NCI tumour cell line growth inhibition, 48 h
HOP-62 NSCLC = tested on: HOP-62 NSCLC
SK-OV-3 ovarian = tested on: SK-OV-3 ovarian
CCRF-CEM leukemia = tested on: CCRF-CEM leukemia
IGROV1 ovarian = tested on: IGROV1 ovarian
DLD-1 colon = tested on: DLD-1 colon
SK-MEL-5 melanoma = tested on: SK-MEL-5 melanoma
786-0 renal = tested on: 786-0 renal
MALME-3M melanoma = tested on: MALME-3M melanoma
SK-MEL-28 melanoma = tested on: SK-MEL-28 melanoma
MOLT-4 leukemia = tested on: MOLT-4 leukemia
M14 melanoma = tested on: M14 melanoma
OVCAR-5 ovarian = tested on: OVCAR-5 ovarian
OVCAR-3 ovarian = tested on: OVCAR-3 ovarian
OVCAR-4 ovarian = tested on: OVCAR-4 ovarian
UO-31 renal = tested on: UO-31 renal
TK-10 renal = tested on: TK-10 renal
HCC-2998 colon = tested on: HCC-2998 colon
M19-MEL melanoma = tested on: M19-MEL melanoma
SNB-19 CNS = tested on: SNB-19 CNS
COLO 205 colon = tested on: COLO 205 colon
U251 CNS = tested on: U251 CNS
RXF 393 renal = tested on: RXF 393 renal
ACHN renal = tested on: ACHN renal
NCI-H460 lung = tested on: NCI-H460 lung
SN12C renal = tested on: SN12C renal
OVCAR-8 ovarian = tested on: OVCAR-8 ovarian
NCI-H226 lung = tested on: NCI-H226 lung
K-562 leukemia = tested on: K-562 leukemia
SF-539 CNS = tested on: SF-539 CNS
HT29 colon = tested on: HT29 colon
UACC-257 melanoma = tested on: UACC-257 melanoma
SW-620 colon = tested on: SW-620 colon
NCI-H23 lung = tested on: NCI-H23 lung
HOP-92 NSCLC = tested on: HOP-92 NSCLC
LOX IMVI melanoma = tested on: LOX IMVI melanoma
SF-295 CNS = tested on: SF-295 CNS
HOP-18 NSCLC = tested on: HOP-18 NSCLC
NCI-H522 lung = tested on: NCI-H522 lung
HCT-15 colon = tested on: HCT-15 colon
A498 renal = tested on: A498 renal
HCT-116 colon = tested on: HCT-116 colon
SK-MEL-2 melanoma = tested on: SK-MEL-2 melanoma
KM20L2 colon = tested on: KM20L2 colon
SNB-75 CNS = tested on: SNB-75 CNS
A549 NSCLC = tested on: A549 NSCLC
UACC-62 melanoma = tested on: UACC-62 melanoma
KM12 colon = tested on: KM12 colon
SF-268 CNS = tested on: SF-268 CNS
EKVX NSCLC = tested on: EKVX NSCLC
CAKI-1 renal = tested on: CAKI-1 renal

SMILES: CC(=O)[CH-]C(=O)c1ccccc1.CC(=O)[CH-]C(=O)c1ccccc1.CC1(C)OCC(C2OC3OC(C)(C)OC3C2[O-])O1.CC[O-].[Ti+4] (centres undefined)
- GI50 (HOP-62 NSCLC): 15.9 µM
- TGI (HOP-62 NSCLC): 31.1 µM
- GI50 (SK-OV-3 ovarian): 21.9 µM
- TGI (SK-OV-3 ovarian): 61.1 µM
- GI50 (CCRF-CEM leukemia): 4.71 µM
- TGI (CCRF-CEM leukemia): > 100 µM
- GI50 (IGROV1 ovarian): 17.9 µM
- TGI (IGROV1 ovarian): 33.5 µM
- GI50 (DLD-1 colon): 9.78 µM
- TGI (DLD-1 colon): 24.7 µM
- GI50 (SK-MEL-5 melanoma): 10.8 µM
- TGI (SK-MEL-5 melanoma): 23.9 µM
- GI50 (786-0 renal): 18.4 µM
- TGI (786-0 renal): 36 µM
- GI50 (MALME-3M melanoma): 13.4 µM
- TGI (MALME-3M melanoma): 27.7 µM
- GI50 (SK-MEL-28 melanoma): 11.6 µM
- TGI (SK-MEL-28 melanoma): 25.1 µM
- GI50 (MOLT-4 leukemia): 15.5 µM
- TGI (MOLT-4 leukemia): 82.1 µM
- GI50 (M14 melanoma): 16.3 µM
- TGI (M14 melanoma): 36.1 µM
- GI50 (OVCAR-5 ovarian): 14.2 µM
- TGI (OVCAR-5 ovarian): 31.5 µM
- GI50 (OVCAR-3 ovarian): 11.7 µM
- TGI (OVCAR-3 ovarian): 30.2 µM
- GI50 (OVCAR-4 ovarian): 14.2 µM
- TGI (OVCAR-4 ovarian): 32.2 µM
- GI50 (UO-31 renal): 18.8 µM
- TGI (UO-31 renal): 41.9 µM
- GI50 (TK-10 renal): 12.4 µM
- TGI (TK-10 renal): 27 µM
- GI50 (HCC-2998 colon): 15.4 µM
- TGI (HCC-2998 colon): 29.9 µM
- GI50 (M19-MEL melanoma): 10.5 µM
- TGI (M19-MEL melanoma): 24.5 µM
- GI50 (SNB-19 CNS): 12.4 µM
- TGI (SNB-19 CNS): 25.4 µM
- GI50 (COLO 205 colon): 17 µM
- TGI (COLO 205 colon): 32.5 µM
- GI50 (U251 CNS): 13.1 µM
- TGI (U251 CNS): 28.3 µM
- GI50 (RXF 393 renal): 3.36 µM
- TGI (RXF 393 renal): 14.9 µM
- GI50 (ACHN renal): 17.3 µM
- TGI (ACHN renal): 35.8 µM
- GI50 (NCI-H460 lung): 10.8 µM
- TGI (NCI-H460 lung): 24.8 µM
- GI50 (SN12C renal): 15.6 µM
- TGI (SN12C renal): 33.1 µM
- GI50 (OVCAR-8 ovarian): 11.5 µM
- TGI (OVCAR-8 ovarian): 26.9 µM
- GI50 (NCI-H226 lung): 15.2 µM
- TGI (NCI-H226 lung): 30.1 µM
- GI50 (K-562 leukemia): 15.3 µM
- TGI (K-562 leukemia): 62.6 µM
- GI50 (SF-539 CNS): 13.3 µM
- TGI (SF-539 CNS): 27.4 µM
- GI50 (HT29 colon): 13.7 µM
- TGI (HT29 colon): 29.3 µM
- GI50 (UACC-257 melanoma): 19.4 µM
- TGI (UACC-257 melanoma): 54.8 µM
- GI50 (SW-620 colon): 15.6 µM
- TGI (SW-620 colon): 44.5 µM
- GI50 (NCI-H23 lung): 15.8 µM
- TGI (NCI-H23 lung): 30 µM
- GI50 (HOP-92 NSCLC): 6.84 µM
- TGI (HOP-92 NSCLC): 20.6 µM
- GI50 (LOX IMVI melanoma): 14.7 µM
- TGI (LOX IMVI melanoma): 29.8 µM
- GI50 (SF-295 CNS): 17.1 µM
- TGI (SF-295 CNS): 31.6 µM
- GI50 (HOP-18 NSCLC): 21.4 µM
- TGI (HOP-18 NSCLC): 56.5 µM
- GI50 (NCI-H522 lung): 16.5 µM
- TGI (NCI-H522 lung): 30.8 µM
- GI50 (HCT-15 colon): 25.9 µM
- TGI (HCT-15 colon): 68 µM
- GI50 (A498 renal): 15.3 µM
- TGI (A498 renal): 28.6 µM
- GI50 (HCT-116 colon): 14.9 µM
- TGI (HCT-116 colon): 28.1 µM
- GI50 (SK-MEL-2 melanoma): 12 µM
- TGI (SK-MEL-2 melanoma): 27.8 µM
- GI50 (KM20L2 colon): 21 µM
- TGI (KM20L2 colon): 53.5 µM
- GI50 (SNB-75 CNS): 6.6 µM
- GI50 (A549 NSCLC): 16.6 µM
- TGI (A549 NSCLC): 40 µM
- GI50 (UACC-62 melanoma): 14.2 µM
- TGI (UACC-62 melanoma): 28.8 µM
- GI50 (KM12 colon): 11.4 µM
- TGI (KM12 colon): 26.8 µM
- GI50 (SF-268 CNS): 13.1 µM
- TGI (SF-268 CNS): 29 µM
- GI50 (EKVX NSCLC): 6.56 µM
- TGI (EKVX NSCLC): 23.3 µM
- GI50 (CAKI-1 renal): 22.8 µM
- TGI (CAKI-1 renal): 40.9 µM
